Reference: patent publication US5334612A, “Pharmaceutical compositions containing as active substance sulphur-containing carboxylic acids and their use in combating retroviruses” (priority 1988, dated 1994)

Legend:
[1] = animal experiments, rats and mice; cited from earlier work
[2] = Acute toxicity in the mouse (LD 50, Miller and Tainter); conditions: in vivo, oral
Method: The acute toxicity of α-lipoic acid in the mouse (expressed in the LD 50 mg/kg; Method after Miller and Tainter: Proc. Soc. Exper. Biol. a. Med. 57 (1944) 261) is, for example, in oral application above 400 mg/kg body weight, that of dihydrolipoic acid above 200 mg/kg body weight mouse.

[3] = tested on: HIV-1 in permanently infected Molt4 cells; assay: Plaque test, tumor cell line (Molt4) permanently infected with HIV-1; type: cell-based
Source text: (§1) The inhibitory effect is shown in a cell line permanently infected with HIV-1.
(§2) 1. Negative (non infected) cells (for example Molt 4) are removed from the culture bottle with RPMI 1640 culture medium and centrifuged down in an appropriate vessel. As a basic principle, the negative cells may be the cells from any CD4 receptor-positive T-cell line. It is, for example, possible to use the following commercially available cell lines: H9, Hut78, SupT1, Jurkat, Molt4. Molt4 is for example a monoclonal T-cell line of the peripheral blood of a cancer patient. T-cell lines are derived from human tumors, for example from specific forms of leukemia. Cell lines of this type grow permanently as long as they are kept in the appropriate culture medium and CO2 concentration in an incubator at 37° C. These lines may be purchased from the American Type Culture Collection (ATCC).
2. These Molt4 cells are then resuspended (taken up) in highly virus-containing culture medium (RPMI 1640+10% fetal calf serum) placed in a culture flask and incubated (cultivated) for ca. 12 hours in an incubator at 37° C. and 5% CO2. This infects part (depending on the concentration of the infectious virus) of the cells.
3. After 12 hours the cells are again separated by centrifugation and resuspended in fresh medium (RPMI 1640, containing no virus) and cultivated for ca. 4 weeks in an incubator.
4. Once every week the medium is completely replaced (separated by centrifugation, resuspended, etc.) and negative, non-infected cells are added.
5. After ca. 4 weeks 80-100% of the cells are infected=permanently infected cell line. The infection is for example determined using immunofluorescence. The cells infected in this manner produce HIV in a titer range of about 10^5 -10^6 infectious units (PFU). The tumor cell line permanently infected in this manner (Molt4) is treated for three weeks with 70 μg of α-lipoic acid/ml. Every three days culture medium and α-lipoic acid are replaced and the activity of the virus determined in the reverse transcriptase and plaque test. […]

[4] = tested on: HIV from patient lymphocytes; assay: Virus isolation with cocultivation (standard method) from patient lymphocytes; type: in vivo, human patients (HIV)
Method: (§3) Virus isolation with cocultivation: patient lymphocytes are cocultivated with donor lymphocytes. The virus produced by these cells (p24) is measured using an ELISA after 21 days (standard method).
(§4) The following results were recorded in 4 patients in Walter Reed stage 6. Application of α-lipoic acid was, by means of infusion of an α-lipoic acid solution having the following composition: 10 ml of aqueous solution containing 250 mg of α-lipoic acid in the form of the ethylene diamine salt (=323 mg salt) as well as 1 g of 1,2-propylene glycol and 100 mg of benzyl alcohol.

[5] = cited from earlier work
[6] = tested on: infectious HIV in plasma; assay: Plasma titer (number of infectious viruses in the plasma); type: in vivo, human patients (HIV)
Method: (§5) Determination of the plasma titer which states the number of infectious viruses in the plasma.
as §4

[7] = tested on: HIV from patient lymphocytes; assay: Virus isolation with cell titration; type: in vivo, human patients (HIV)
Method: (§6) Virus isolation without cocultivation: the production of virus (p24) from 1×10^6 patient lymphocytes is quantitatively measured using an ELISA after 11 days. No donor lymphocytes are added in this standardized method. Virus production may be quoted in pg^1 p24/ml/200,000 cells. (Newly developed method). Cell titration: virus isolation is carried out starting from a decreasing number of patient lymphocytes (e.g. 10^6, 10^5, 10^4).
as §4

[8] = tested on: HIV in freshly infected Jurkat cells; assay: Plaque test, freshly infected Jurkat cells; type: cell-based; conditions: 7 days
Method: To compare both compounds, freshly split Jurkat cells were infected with HIV (8×10^3 PFU) and afterwards recombinant alpha interferon (rIF) (70 units/ml) or 35 ng/ml of α-lipoic acid was added thereto using a pipette. The experiment was concluded after 7 days in order to assess in particular the growth of the first virus generation.
Cells are taken up in fresh medium and may now be defined as being freshly infected cells. As distinct from permanently infected cells, far fewer cells are virus carriers, and therefore synchronously treated, i.e. the first and second virus generation is given off into the culture supernatant relatively at the same time on the 3rd and 7th day. These virus generations may be quantified on these days (plaque and reverse transcriptase test) and may be compared. The term "single hit kinetics" is also used in this context.
3. α-lipoic acid is added using a pipette.
Cells are cultured for 7 days in an incubator.
On day 4 and day 7 samples are withdrawn from the culture for plaque and RT assay.

[9] = tested on: peripheral blood lymphocytes; assay: Proliferation rate or lethality of peripheral blood lymphocytes; type: cell-based; conditions: 70 μg/ml
[10] = tested on: HIV; assay: Virological markers overall in HIV-infected patients; type: in vivo
Method: (§7) Determination of the plasma p24 antigen level using a commercial ELISA; p24 is the designation for a structural protein of the HIV virus; ELISA (Enzyme Linked Immuno Sorbent Assay) is a test technique frequently used in virology in order to determine proteins, antigens, etc.
as §3, §6, §5, §4

[11] = tested on: HIV p24 production from patient lymphocytes; assay: Virus isolation without cocultivation, p24 production of patient lymphocytes; type: in vivo, human patients (HIV)
Method: as §6, §4

[12] = tested on: HIV-1 in permanently infected Molt4 cells; assay: Reverse transcriptase test, tumor cell line (Molt4) permanently infected with HIV-1; type: cell-based; conditions: 70 μg/ml, FIG. 1
Source text: as §1, §2
2. These Molt4 cells are then resuspended (taken up) in highly virus-containing culture medium (RPMI 1640+10% fetal calf serum) placed in a culture flask and incubated (cultivated) for ca. 12 hours in an incubator at 37° C. and 5% CO2. […]
5. […] The infection is for example determined using immunofluorescence. […] Every three days culture medium and α-lipoic acid are replaced and the activity of the virus determined in the reverse transcriptase and plaque test. […]

[13] = tested on: plasma p24 antigen (HIV); assay: Plasma p24 antigen level (ELISA) in HIV-infected patients; type: in vivo, human patients (HIV)
Method: as §7, §4
Walter Reed stages: division of HIV-infected patients according to the degree of their clinical symptoms. In stage 0 no HIV virus can be detected. Stage 6 relates to the final stage of AIDS.

[14] = tested on: HIV-1; assay: Reduction of infectious viruses (HIV-1) in cell culture supernatant in vitro; type: cell-based
Method: For example the compounds of Formula I have a good, growth-inhibiting effect on HIV (type 1 and 2) which may be shown in vitro for example in the following virological-cell biological test processes:
3. Determination of reverse transcriptase in culture supernatant
4. Determination of the p24 antigen in culture supernatant
Thus, for example, a single dose of 0.035 mg/ml of compound I (for example alpha-lipoic acid, racemate) reduces the number of infectious viruses (for example HIV-1) in cell culture supernatant from 100% in the positive control to 0%.
For the in vitro trials the active substance of Formula I is used, for example in benzyl alcohol as solvent.
For in vitro investigations into the replication behavior of retroviruses, in particular HIV, it is for example possible to use the following substrates:
1. Virus-containing RPMI 1640 medium, for example 1X liquid 041-01875 (synthetic culture medium from Gibeo according to Moore, Gerner and Franklin, H.A. (1967), J.A.M.A. 199; 519) with a concentration of 2×10^3 -1×10^4 infectious units (PFU)/ml.
2. The cell lines Jurkat Clone E6-1, Sup T1 and HeLa CT4.

[15] = Plasma level at normal oral dosage; type: in vivo; conditions: side effect-free dosage
[16] = patient 2, towards the end and after conclusion of therapy

## O=C(O)CCCCC(S)CCS (stereo not drawn) [dihydrolipoic acid, 6,8-dimercapto-octanoic acid]
[1]
  inactivation of snake venom: inactivates snake venom
[2]
  LD50: > 200 mg/kg

## O=C(O)CCCCC1CCSS1 (racemic) [α-lipoic acid]
[3]; Human immunodeficiency virus 1, MOLT-4, 72 h, read-out: reduction of infectious virus units
  inhibition at 70 µg/mL: ~100%
[3]; after 3 days, 70 μg/ml, FIG. 1
  number of infectious virus units: about 0
[3]; three weeks, 70 μg/ml
  development of tolerance: no sign or evidence of the development of tolerance after three weeks
[4]; cases 2 and 3, summary
  virus isolation from patient lymphocytes: totally negative
[4]; patient 1, throughout the entire therapy period
  virus isolation (standard method): positive
[4]; [16]
  virus isolation: repeatedly negative
[5]; racemate
  pharmacological properties: anti-inflammatory, antinociceptive (analgesic) and cytoprotective properties
[5]; α-lipoic acid racemate
  effect in fungus poisoning / coenzyme and growth factor roles: acts as co-enzyme in many enzymatic reactions, constitutes a growth factor for certain bacteria and protozoas and is used in death-head fungus poisoning
[6]; cases 2 and 4, in the course of therapy, summary
  positive plasma titers: 0
[6]; patient 3
  plasma titrations: always negative
[6]; patient 4, during therapy, before therapy 10
  plasma titer: 0
[7]; patient 2, during treatment, before treatment 10^3 cells
  cell titer, number of cells from which virus could be cultivated: 10^5 cells
[7]; patient 2, during treatment, before treatment 1000
  cell titer, fall: fell by two orders of magnitude
[7]; patient 4, after conclusion of therapy
  results after conclusion of therapy: deteriorated once again
[7]; patient 4, end of therapy (in the current range), before therapy virus clearly detected in 2×10^6 cells
  virus detection: hardly any viruses could be detected
[2]
  LD50: > 400 mg/kg
[8]; infected, not pre-treated Jurkat cells, α-lipoic acid 35 ng/ml (so in the source), rIF 70 units/ml, FIG. 2 and 3
  inhibition of viral replication: comparable inhibition
[8]; α-lipoic acid 35 ng/ml (so in the source) vs rIF 70 units/ml, FIG. 3
  inhibition in the plaque test: clearer
[9]
  proliferation rate or lethality of peripheral blood lymphocytes: not substantially affected
[10]; [16]
  virus markers: drastic fall in all virus markers
[10]; patients with clearly measurable virological markers
  improvement in virological markers: marked improvement in these parameters
[11]; cases 2, 3 and 4, summary
  virus production in virus isolations from patient lymphocytes: markedly lower virus production
[11]; patient 3, after the end of therapy
  production of p24 antigen, change after end of therapy: rose again slowly
[11]; patient 3, by day 28, before therapy about 10
  production of p24 antigen: 0 pg/ml 200,000 cells
[11]; patient 3, day 5 of therapy, before therapy about 10 pg/ml 200,000 cells
  production of p24 antigen, change: doubled
[11]; patient 4, after end of therapy, also treated with AZT
  p24 production, change after end of therapy: did not rise significantly
[11]; patient 4, up to the end of therapy, before therapy 8 pg/ml, also being treated with AZT at this time
  p24 production/ml/200,000 cells, fall: 75%
[12]
  time from which number of virus units produced falls: ≥ 6 days
[12]; Human immunodeficiency virus 1, MOLT-4, 504 h, after three weeks, read-out: reduction of number of virus units produced
  inhibition at 70 µg/mL: 90%
[13]; cases 1 and 2, ca. 14 days, summary
  plasma p24 antigen level, fraction of initial value: 1/10
[13]; patient 1, infusion, 14 days after commencement of therapy, before therapy 0.350 ng/ml
  plasma p24 antigen level: 0.05 ng/mL
[13]; patient 1, infusion, day 29, before therapy 0.350 ng/ml
  plasma p24 antigen level: 0.025 ng/mL
[13]; patient 1, infusion, until end of therapy (58 days), before therapy 0.350 ng/ml
  plasma p24 antigen level: 0.25 ng/mL
[13]; patient 2, infusion, prior to treatment 0.4 ng/ml
  plasma p24 antigen level, initial fall: barely the 10-fold value
[13]; patient 3
  plasma p24 antigen level: always negative
[13]; patient 4, after end of therapy
  plasma p24 antigen level, change after end of therapy: again rose to the initial values
[13]; patient 4, infusion, up to the 18th day of therapy, before/at beginning of therapy 0.070 ng/ml
  plasma p24 antigen level: 0.005 ng/mL
[14]; Human immunodeficiency virus 1, same test procedure, read-out: low dose at which a virus-inhibiting effect can be demonstrated
  minimal effective concentration: 1 µg/mL
[14]; Human immunodeficiency virus 1, single dose of 0.035 mg/ml, read-out: number of infectious viruses in cell culture supernatant (positive control 100%)
  activity at 35 µg/mL: 0%
[15]
  factor by which 70 μg/ml is above the plasma levels: 10-20 times
